The target of assay [1] is T1, Rap guanine nucleotide exchange factor 3 (Homo sapiens, UniProt O95398).
T1 sequence (O95398 whole entry): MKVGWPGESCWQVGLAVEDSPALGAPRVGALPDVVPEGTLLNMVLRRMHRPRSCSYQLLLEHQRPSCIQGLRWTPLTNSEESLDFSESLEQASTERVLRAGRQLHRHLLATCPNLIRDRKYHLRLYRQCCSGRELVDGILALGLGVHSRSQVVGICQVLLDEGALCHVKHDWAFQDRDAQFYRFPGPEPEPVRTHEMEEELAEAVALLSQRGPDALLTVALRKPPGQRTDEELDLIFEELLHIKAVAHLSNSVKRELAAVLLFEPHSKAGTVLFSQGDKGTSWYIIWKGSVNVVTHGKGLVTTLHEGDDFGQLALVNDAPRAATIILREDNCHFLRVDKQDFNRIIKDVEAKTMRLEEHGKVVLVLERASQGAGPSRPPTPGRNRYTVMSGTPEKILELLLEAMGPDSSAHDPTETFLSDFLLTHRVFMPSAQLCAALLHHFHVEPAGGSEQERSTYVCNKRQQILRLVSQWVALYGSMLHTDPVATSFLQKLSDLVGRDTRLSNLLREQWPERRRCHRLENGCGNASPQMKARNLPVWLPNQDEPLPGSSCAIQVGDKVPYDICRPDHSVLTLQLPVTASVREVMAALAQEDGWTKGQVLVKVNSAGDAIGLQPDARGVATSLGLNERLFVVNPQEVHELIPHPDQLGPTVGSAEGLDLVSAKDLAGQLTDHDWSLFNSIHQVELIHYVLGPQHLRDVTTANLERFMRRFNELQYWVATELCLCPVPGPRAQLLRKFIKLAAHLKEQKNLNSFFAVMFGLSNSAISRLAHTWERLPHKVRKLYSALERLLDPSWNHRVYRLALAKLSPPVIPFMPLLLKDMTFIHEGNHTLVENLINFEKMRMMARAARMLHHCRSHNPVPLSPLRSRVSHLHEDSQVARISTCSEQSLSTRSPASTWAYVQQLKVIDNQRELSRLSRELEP
Briefly: Antagonist activity at recombinant human full length EPAC1 assessed as inhibition of EPAC1-mediated Rap1B (1 to 167 residues)-BODIPY GDP nucleotide exchange activity in presence of 20 uM cAMP.

In assay [2] the target is T2, Rap guanine nucleotide exchange factor 4 (Mus musculus, UniProt Q9EQZ6).
T2 sequence (Q9EQZ6 whole entry): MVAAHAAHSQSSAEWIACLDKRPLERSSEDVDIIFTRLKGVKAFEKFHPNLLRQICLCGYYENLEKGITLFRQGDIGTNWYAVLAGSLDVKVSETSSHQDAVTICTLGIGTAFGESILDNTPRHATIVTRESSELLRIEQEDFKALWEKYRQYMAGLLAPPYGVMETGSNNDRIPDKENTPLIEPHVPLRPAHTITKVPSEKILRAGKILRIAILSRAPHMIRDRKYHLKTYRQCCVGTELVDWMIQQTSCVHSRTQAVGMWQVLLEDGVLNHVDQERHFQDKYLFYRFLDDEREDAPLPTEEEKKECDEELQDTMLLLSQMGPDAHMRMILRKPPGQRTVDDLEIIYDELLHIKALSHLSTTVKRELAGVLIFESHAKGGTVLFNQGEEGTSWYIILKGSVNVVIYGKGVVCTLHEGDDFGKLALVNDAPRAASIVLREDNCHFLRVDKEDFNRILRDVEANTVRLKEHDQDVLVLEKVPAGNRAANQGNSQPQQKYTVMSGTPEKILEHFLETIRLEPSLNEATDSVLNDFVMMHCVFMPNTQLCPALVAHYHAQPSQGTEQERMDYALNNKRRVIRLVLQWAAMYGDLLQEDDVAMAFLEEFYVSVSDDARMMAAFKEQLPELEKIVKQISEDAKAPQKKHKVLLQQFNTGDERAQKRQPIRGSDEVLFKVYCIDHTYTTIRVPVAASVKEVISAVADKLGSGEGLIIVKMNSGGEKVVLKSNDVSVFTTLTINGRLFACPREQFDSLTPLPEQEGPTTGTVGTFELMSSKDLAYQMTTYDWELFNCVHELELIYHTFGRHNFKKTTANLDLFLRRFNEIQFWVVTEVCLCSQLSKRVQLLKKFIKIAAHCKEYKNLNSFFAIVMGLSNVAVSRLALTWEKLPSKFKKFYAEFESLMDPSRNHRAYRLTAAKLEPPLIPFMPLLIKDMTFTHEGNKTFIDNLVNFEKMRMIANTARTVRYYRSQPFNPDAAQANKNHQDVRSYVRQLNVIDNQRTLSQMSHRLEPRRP
Briefly: Antagonist activity at mouse EPAC2 assessed as inhibition of EPAC2-mediated Rap1B (1 to 167 residues)-BODIPY GDP nucleotide exchange activity.

The nature of assay [3]: Ratio of IC50 for recombinant human full length EPAC1 to IC50 for mouse EPAC2.

Regarding `N#C/C(=N\Nc1cccc(Cl)c1)C(=O)c1cc(-c2ccco2)on1`, in assay [1], the IC50 (in general, the concentration that gives 50% inhibition) turned out to be 9.9 µM.

Turning to `CC(C)(C)c1ccc(-c2cc(C(=O)/C(C#N)=N/Nc3cccc(Cl)c3)no2)cc1`, in assay [1], the IC50 was 8.6 µM.

`N#C/C(=N\Nc1cc(F)cc(Cl)c1)C(=O)c1noc2ccccc12`: the IC50 in assay [1] came to 18.9 µM.

Take `CC(C)(C)c1cc(C(=O)/C(C#N)=N/Nc2cc(Cl)c(Cl)c(Cl)c2)no1`: the IC50 in assay [1] was determined as 2.7 µM.

For the compound `N#C/C(=N\Nc1ccc(F)c(Cl)c1)C(=O)c1noc2ccccc12`, the IC50 in assay [1] was determined as 8.5 µM.

As to `COc1ccc(-c2cc(C(=O)/C(C#N)=N/Nc3ccc(Cl)c(C(F)(F)F)c3)no2)cc1`, the IC50 in assay [2] is 4.5 µM.

Consider `N#C/C(=N\Nc1cccc(Cl)c1)C(=O)c1noc2ccccc12`, for which the half-maximal inhibitory concentration (IC50) in assay [1] turned out to be 13.2 µM.

As for `N#C/C(=N\Nc1ccc(Cl)c(C(F)(F)F)c1)C(=O)c1noc2ccccc12`, the IC50 worked out at 1.9 µM in assay [2] and 2.7 µM in assay [1].

In the case of `N#C/C(=N\Nc1ccc(C(F)(F)F)c(Cl)c1)C(=O)c1noc2ccccc12`, the figures for the IC50 in assay [2] and in assay [1] were 2.2 µM and 3 µM, respectively.

As for `N#C/C(=N\Nc1ccc(Cl)c(C(F)(F)F)c1)C(=O)c1cc(-c2ccco2)on1`, the IC50 in assay [2] came out at 2.3 µM; in assay [1], 4.2 µM.

`N#C/C(=N\Nc1cc(C(F)(F)F)cc(C(F)(F)F)c1)C(=O)c1cc(-c2ccccc2)on1`: the figures for the IC50 in assay [2] and in assay [1] were 3.3 µM and 7.2 µM, respectively.

In the case of `N#C/C(=N\Nc1cc(Cl)cc(C(F)(F)F)c1)C(=O)c1cc(-c2ccccc2)on1`, the IC50 in assay [1] was 9.5 µM.

Take `CC(C)(C)c1cc(C(=O)/C(C#N)=N/Nc2cccc(Cl)c2)no1`: in assay [3], the Ratio IC50 worked out at 2.5. Besides, in assay [2], the concentration for half-maximal inhibition (IC50) is 4.4 µM.

As to `COc1ccc(-c2cc(C(=O)/C(C#N)=N/Nc3cccc(Cl)c3)no2)cc1`, the IC50 in assay [1] worked out at 11.4 µM.

Turning to `N#C/C(=N\Nc1cc(Cl)cc(C(F)(F)F)c1)C(=O)c1noc2ccccc12`, the IC50 worked out at 2.2 µM in assay [2] and 4.6 µM in assay [1].

As to `N#C/C(=N\Nc1cccc(Cl)c1)C(=O)c1cc(-c2ccccc2)on1`, the half-maximal inhibitory concentration (IC50) in assay [1] is over 150 µM.

On to `N#C/C(=N\Nc1ccc(Cl)c(C(F)(F)F)c1)C(=O)c1cc(-c2ccccc2)on1`, for which the IC50 in assay [2] was 2.3 µM.

For `N#C/C(=N\Nc1ccc(Cl)c(C(F)(F)F)c1)C(=O)c1cc(-c2ccc(Cl)cc2)on1`, the half-maximal inhibitory concentration (IC50) in assay [1] worked out at 7.8 µM.

As for `COc1ccc(-c2cc(C(=O)/C(C#N)=N/Nc3cc(C(F)(F)F)cc(C(F)(F)F)c3)no2)cc1`, the IC50 came out at 7 µM in assay [2] and 5.6 µM in assay [1].

As for `CC(C)(C)c1ccc(-c2cc(C(=O)/C(C#N)=N/Nc3ccc(C(F)(F)F)c(Cl)c3)no2)cc1`, the IC50 in assay [1] was 9 µM.

As to `CC(C)(C)c1ccc(-c2cc(C(=O)/C(C#N)=N/Nc3ccc(Cl)c(C(F)(F)F)c3)no2)cc1`, the IC50 in assay [2] turned out to be 2.2 µM; in assay [1], 7.3 µM.

In the case of `N#C/C(=N\Nc1cc(C(F)(F)F)cc(C(F)(F)F)c1)C(=O)c1noc2ccccc12`, the IC50 in assay [1] was found to be 6.7 µM.

As for `N#C/C(=N\Nc1cc(Cl)cc(C(F)(F)F)c1)C(=O)c1cc(-c2ccco2)on1`, the values for the half-maximal inhibitory concentration (IC50) in assay [2] and in assay [1] were 2.2 µM and 3.6 µM, respectively.

Take `CC(C)(C)c1ccc(-c2cc(C(=O)/C(C#N)=N/Nc3cc(C(F)(F)F)cc(C(F)(F)F)c3)no2)cc1`: in assay [1], the IC50 was determined as 11.9 µM.

These data come from ChEMBL document CHEMBL4020713, “Identification of novel 2-(benzo[d]isoxazol-3-yl)-2-oxo-N-phenylacetohydrazonoyl cyanide analoguesas potent EPAC antagonists” (Eur J Med Chem, 2017).
